Assay results reported in EP0364819A2, “LHRH analogs” (The Administrators of The Tulane Educational Fund, priority 1988, dated 1990).
Blank lines part the entries; values can stand above or below the substance they belong to.

Key:
[1] = target: T1, membrane receptors of rat pituitary (Rattus norvegicus, UniProt P30969); assay: Receptor binding to rat pituitary membranes with 125I-labeled [D-Trp6]LHRH; conditions: Table 1, agonistic analogues; high affinity binding sites; pituitary of male rats; ¹²⁵l-labeled [D-Trp⁶]LHRH
T1 construct: membrane receptors of rat pituitary; from tissue; host or cells: rat pituitary membranes
T1 sequence (P30969 1-327): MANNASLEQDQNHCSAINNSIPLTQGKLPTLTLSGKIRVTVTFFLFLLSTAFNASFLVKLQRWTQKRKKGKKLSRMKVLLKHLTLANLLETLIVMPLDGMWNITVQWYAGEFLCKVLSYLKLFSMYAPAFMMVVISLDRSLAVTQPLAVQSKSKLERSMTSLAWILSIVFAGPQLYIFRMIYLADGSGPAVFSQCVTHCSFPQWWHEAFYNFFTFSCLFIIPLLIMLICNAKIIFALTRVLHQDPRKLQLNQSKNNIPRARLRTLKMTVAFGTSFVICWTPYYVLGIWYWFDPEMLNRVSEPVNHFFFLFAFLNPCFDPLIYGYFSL
Experimental: (§1) This is determined by using labelled LHRH and [D-Trp⁶]LHRH. The assay is carried out similarly to that described by T. Kadar et al., Proc. Natl. Acad. Sci. USA, 85, 890-894 (1988).
(§2) Table 2 presents the antiovulatory activity of the claimed compounds having LHRH-inhibiting properties. The inhibitory action was determined in vivo, in 4-day cycling rats as described [A. Corbin and C. W. Beattie, Endocr. Res. Commun., 2, 1-23 (1975)]. Affinities of the claimed compounds to membrane receptors of rat pituitary and human breast cancer cells are also given in Tables 1 and 2 as determined by using [[…],D-Trp⁶]LHRH.

[2] = tested on: dispersed rat pituitary cell superfusion system; assay: LH release in dispersed rat pituitary cell superfusion system (LHRH agonistic activity); format: cell-based; conditions: peptide infused for 3 minutes at various concentration; LH released compared to that released by 3 nM LHRH
Experimental: The ability of compounds to influence LH release in vitro is assayed by using a superfused rat pituitary cell system [S. Vigh and A. V. Schally, Peptides, 5 Suppl.
The peptide was infused for 3 minutes at various concentration, and the amount of LH released was compared to that released by 3 nM LHRH.

[3] = target: T2, membrane receptors of human breast cancer cells (Homo sapiens, UniProt P30968); assay: Receptor binding to human breast cancer cell membranes with 125I-labeled [D-Trp6]LHRH; conditions: Table 1, agonistic analogues, high affinity binding sites, ¹²⁵l-labeled [D-Trp⁶]LHRH
T2 construct: human prostate and breast cancer cell membranes; endogenous in cells
T2 sequence (P30968 1-328): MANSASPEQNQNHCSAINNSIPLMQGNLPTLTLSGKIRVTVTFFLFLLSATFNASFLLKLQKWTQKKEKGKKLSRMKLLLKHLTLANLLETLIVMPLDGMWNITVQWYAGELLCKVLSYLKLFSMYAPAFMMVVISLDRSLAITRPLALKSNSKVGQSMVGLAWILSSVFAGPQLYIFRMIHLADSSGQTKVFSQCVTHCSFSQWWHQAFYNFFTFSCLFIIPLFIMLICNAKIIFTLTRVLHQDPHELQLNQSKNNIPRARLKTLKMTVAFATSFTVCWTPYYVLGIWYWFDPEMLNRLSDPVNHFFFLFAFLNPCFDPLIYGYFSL
Experimental: (c)Affinity for peptides to human prostate and breast cancer cell membranes.
as §1, §2

[4] = tested on: rat mammary tumor cell line MT-4; assay: Inhibition of 3H-thymidine incorporation into DNA of MT-4 monolayer cultures; format: cell-based; conditions: for DPM/Well x1000: mean +/- standard error
Experimental: (d) Ability of peptides of Formula I to inhibit incorporation of [³H]thymidine into DNA of monolayer cultures the rat mammary tumor cell line MT-4
This is assayed as described [V. K. Sondak et al., Cancer Research, 44, 1725-1728 (1984); F. Holzel et al., J. Cancer Res. Clin. Oncol. 109, 217-226 (1985); M. Albert et al., J. Cancer Res. Clin. Oncol. 109, 210-216 (1985)].
To obtain information about the cytotoxic properties of the compounds, the inhibition of ³H-thymidine incorporation into DNA of monolayer cultures of the rat mammary tumor cell line MT-4 was studied. Experiments started with 100 K MT-4 cells/plate on day 0. Dose was changed 3 times, total incubation time with the sample was 5 days. 1µCu ³H-thymidine/ml was added on day 4.

[5] = DME Medium + 0% Serum (plus additives), Dose 1 ng/ml (6x10⁻¹⁰M)
[6] = DME Medium + 0% Serum (plus additives), Dose 10 ng/ml
[7] = DME Medium + 0% Serum (plus additives), Dose 100 ng/ml
[8] = DME Medium + 0% Serum (plus additives), Dose 1000 ng/ml
[9] = DME Medium + 0% Serum (plus additives), Dose 2000 ng/ml
[10] = DME Medium + 10% Serum, Dose 1 ng/ml (6x10⁻¹⁰M)
[11] = DME Medium + 10% Serum, Dose 10 ng/ml
[12] = DME Medium + 10% Serum, Dose 100 ng/ml
[13] = DME Medium + 10% Serum, Dose 1000 ng/ml
[14] = DME Medium + 10% Serum, Dose 2000 ng/ml

- Binding affinity, Ka1, for membrane receptors of pituitary [1]: 9.710 nM⁻¹
- Binding affinity, Ka1, for membrane receptors of cancer cells [3]: 5.234 nM⁻¹
Substance: pGlu-His-Trp-Ser-Tyr-D-Lys[(Ni⁺⁺)(SAL) 2(A₂pr)]-Leu-Arg-Pro-Gly-NH₂ [VIIIA]
- Hormonal activity* LH responses rel. to LHRH (= 1) [2]: 12

- Binding affinity, Ka1, for membrane receptors of pituitary [1]: 6.457 nM⁻¹
- Binding affinity, Ka1, for membrane receptors of cancer cells [3]: 3.334 nM⁻¹
Substance: pGlu-His-Trp-Ser-Tyr-D-Lys[(Ni⁺⁺)(SAL)₂(D-A₂pr)]-Leu-Arg-Pro-Gly-NH₂ [VIIIB]
- Hormonal activity* LH responses rel. to LHRH (= 1) [2]: 10

- Binding affinity, Ka1, for membrane receptors of pituitary [1]: 3.285 nM⁻¹
- Binding affinity, Ka1, for membrane receptors of cancer cells [3]: 1.743 nM⁻¹
Substance: pGlu-His-Trp-Ser-Tyr-D-Lys[(PtCl₂)(DL-A₂pr)]-Leu-Arg-Pro-Gly-NH₂ [Example III]
- Hormonal activity* LH responses rel. to LHRH (= 1) [2]: 55

- Binding affinity, Ka1, for membrane receptors of pituitary [1]: 5.817 nM⁻¹
- Binding affinity, Ka1, for membrane receptors of cancer cells [3]: 3.005 nM⁻¹
Substance: pGlu-His-Trp-Ser-Tyr-D-Lys[Cu⁺⁺) POL)₂(DL-A₂pr)]-Leu-Arg-Pro-Gly-NH₂ [XVIII]
- Hormonal activity* LH responses rel. to LHRH (= 1) [2]: 9

- Binding affinity, Ka1, for membrane receptors of pituitary [1]: 8.676 nM⁻¹
- Binding affinity, Ka1, for membrane receptors of cancer cells [3]: 4.528 nM⁻¹
Substance: pGlu-His-Trp-Ser-Tyr-D-Lys[Cu⁺⁺)(POLP) ₂(A₂pr)]-Leu-Arg-Pro-Gly-NH₂ [XIX]
- Hormonal activity* LH responses rel. to LHRH (= 1) [2]: 0.3

The remaining lines, values behind:

Substance: pGlu-His-Trp-Ser-Tyr-D-Lys[(Cu⁺⁺)(POL)₂(DL-A₂bu)]-Leu-Arg-Pro-Gly-NH₂ [XXV]
- Binding affinity, Ka1, for membrane receptors of pituitary [1]: 6.405 nM⁻¹
- Hormonal activity* LH responses rel. to LHRH (= 1) [2]: 5.5
- Binding affinity, Ka1, for membrane receptors of cancer cells [3]: 3.141 nM⁻¹

Substance: pGlu-His-Trp-Ser-Tyr-D-Lys[(Cu⁺⁺)(POLP)₂(DL-A₂bu)]-Leu-Arg-Pro-Gly-NH₂ [Example XVI]
- Binding affinity, Ka1, for membrane receptors of pituitary [1]: 9.751 nM⁻¹
- Hormonal activity* LH responses rel. to LHRH (= 1) [2]: 1.5
- Binding affinity, Ka1, for membrane receptors of cancer cells [3]: 5.038 nM⁻¹

Substance: pGlu-His-Trp-Ser-Tyr-D-Lys[(Cu⁺⁺)(SAL) 2(A₂pr)]-Leu-Arg-Pro-Gly-NH₂ [VIA]
- Binding affinity, Ka1, for membrane receptors of pituitary [1]: 3.051 nM⁻¹
- Hormonal activity* LH responses rel. to LHRH (= 1) [2]: 12
- Binding affinity, Ka1, for membrane receptors of cancer cells [3]: 1.348 nM⁻¹

Substance: pGlu-His-Trp-Ser-Tyr-D-Lys[(Cu⁺⁺)(SAL) ₂(A₂pr)]-Leu-Arg-Pro-Gly-NH₂ [Example VII]
- %Inhibition [4, 5]: 41%
- DPM/Well x1000 [4, 5]: 249+/-30.5 DPM/Well x1000
- %Inhibition [4, 6]: 42%
- DPM/Well x1000 [4, 6]: 242+/-32.1 DPM/Well x1000
- %Inhibition [4, 7]: 56%
- DPM/Well x1000 [4, 7]: 186+/-13.2 DPM/Well x1000
- %Inhibition [4, 8]: 52%
- DPM/Well x1000 [4, 8]: 204+/-40.9 DPM/Well x1000
- %Inhibition [4, 9]: 41%
- DPM/Well x1000 [4, 9]: 249+/-45.1 DPM/Well x1000
- %Inhibition [4, 10]: 53%
- DPM/Well x1000 [4, 10]: 48+/-8.6 DPM/Well x1000
- %Inhibition [4, 11]: 61%
- DPM/Well x1000 [4, 11]: 40+/-6.7 DPM/Well x1000
- %Inhibition [4, 12]: 59%
- DPM/Well x1000 [4, 12]: 42+/-10.4 DPM/Well x1000
- %Inhibition [4, 13]: 65%
- DPM/Well x1000 [4, 13]: 36+/-5.1 DPM/Well x1000
- %Inhibition [4, 14]: 62%
- DPM/Well x1000 [4, 14]: 39+/-4.6 DPM/Well x1000
- inhibition of ³H-thymidine incorporation into DNA ([4]; at a concentration of 6x10.⁻¹⁰ M, total incubation time 5 days): strong inhibitory effect
- Binding affinity, Ka1, for membrane receptors of pituitary [1]: 7.968 nM⁻¹
- Hormonal activity* LH responses rel. to LHRH (= 1) [2]: 10
- Binding affinity, Ka1, for membrane receptors of cancer cells [3]: 3.589 nM⁻¹

Substance: pGlu-His-Trp-Ser-Tyr-D-Lys[(Cu⁺⁺)(SAL)₂(DL-A₂bu)]-Leu-Arg-Pro-Gly-NH₂ [XIV]
- Binding affinity, Ka1, for membrane receptors of pituitary [1]: 5.589 nM⁻¹
- Hormonal activity* LH responses rel. to LHRH (= 1) [2]: 25
- Binding affinity, Ka1, for membrane receptors of cancer cells [3]: 1.628 nM⁻¹
